In patent publication US11542290B2 (priority 2018, dated 2023):
Several values for one entry are separate records, joined by “and”; a condition that tells them apart may be missing. Equal values may be shown once. Read-outs that look alike come from different tables or passages of the source. Blank lines part the entries; values can stand above or below the compound they belong to.

Columns and labels:
P-gp (MDR1) = experiment: in vitro; conditions: dog
in vitro = conditions: human
rps29−/− embryos = conditions: in vivo, cited from earlier work
[1] = system: CD34+ hematopoietic stem and progenitor cells with rps19 knockdown; conditions: cited from earlier work
Caco-2 cells [2] = conditions: cited from earlier work
[3] = system: embryos of Rps29 heterozygote fish; experiment: Zebra fish assay (tail mutation and anemia classification, o-dianisidine staining)
Caco-2 cells [4] = system: Caco-2 cells
[5] = in vivo; cited from earlier work
[6] = antipsychotic potency; cited from earlier work
DBA murine model = conditions: injection; cited from earlier work
[7] = target: p70 ribosomal S6 kinase (p70S6K) (Homo sapiens (Human), UniProt P23443); conditions: profiling of over 100 kinases; cited from earlier work
[8] = MDCK-MDR1, Efflux ratio MDCK-MDR1 cells
[9] = MDCK-MDR1, Permeability coefficient (Papp) MDCK-MDR1 cells (A -> B)
[10] = MDCK-MDR1, Permeability coefficient (Papp) MDCK-MDR1 cells (B -> A)
[11] = Caco-2, Efflux ratio Caco-2 cells
[12] = Caco-2, Permeability coefficient (Papp) Caco-2 cells (A -> B)
[13] = Caco-2, Permeability coefficient (Papp) Caco-2 cells (B -> A)
[14] = 10 μM of the compound, 48 hours of treatment from 24 hours post fertilization

Chain of p70 ribosomal S6 kinase (p70S6K) (P23443 whole entry): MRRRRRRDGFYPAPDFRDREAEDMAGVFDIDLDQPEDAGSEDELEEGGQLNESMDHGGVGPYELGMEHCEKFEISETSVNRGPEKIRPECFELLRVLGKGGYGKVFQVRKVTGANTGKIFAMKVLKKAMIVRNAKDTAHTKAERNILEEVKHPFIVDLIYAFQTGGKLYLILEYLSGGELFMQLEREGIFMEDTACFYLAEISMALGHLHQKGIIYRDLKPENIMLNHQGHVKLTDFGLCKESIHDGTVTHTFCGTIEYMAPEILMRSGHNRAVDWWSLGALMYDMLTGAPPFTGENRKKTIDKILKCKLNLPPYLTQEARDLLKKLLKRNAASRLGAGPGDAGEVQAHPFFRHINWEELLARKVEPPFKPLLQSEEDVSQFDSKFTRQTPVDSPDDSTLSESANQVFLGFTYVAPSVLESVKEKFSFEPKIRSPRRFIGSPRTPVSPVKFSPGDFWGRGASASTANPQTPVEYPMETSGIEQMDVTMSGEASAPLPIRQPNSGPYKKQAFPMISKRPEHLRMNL

Compound: c1ccc2c(c1)Nc1ccccc1S2 [10H-phenothiazine]
- Papp A→B at 60 min (P-gp (MDR1); MDCK-MDR1): 53.8 ×10⁻⁶ cm/s
- Papp B→A at 60 min (P-gp (MDR1); MDCK-MDR1): 38 ×10⁻⁶ cm/s
- efflux ratio at 60 min (P-gp (MDR1); MDCK-MDR1): 0.71
- Papp A→B at 2 h (in vitro; Caco-2): 42.7 ×10⁻⁶ cm/s
- Papp B→A at 2 h (in vitro; Caco-2): 37.7 ×10⁻⁶ cm/s
- efflux ratio at 2 h (in vitro; Caco-2): 0.88

Compound: CC1(CN2CCC(n3c(=O)[nH]c4ccccc43)CC2)OCc2ccccc2-n2cccc21.O=C(O)/C=C\C(=O)O (stereo not shown) [CGS-9343B]
- Endothelial defect in rps29 mutant embryos (in words) (rps29−/− embryos; zebrafish): successfully rescued the endothelial defect

Compound: NCCNS(=O)(=O)c1cccc2c(Cl)cccc12 [Compound A-3]
- Hemoglobin levels in the zebrafish embryo (in words) (rps29−/− embryos): rescued hemoglobin levels
- Morphology of the embryo head (in words) (rps29−/− embryos; zebrafish): improved the morphology of the apoptotic embryo head
- Concentration decreasing the levels of p21 in CD34+ cells ([1]; in vitro): 1 to 50 µM
- p53 and p21 levels or nuclear localization (in words) ([1]; rps19 knockdown by siRNA): decreased p53 and p21 levels or nuclear localization

Compound: NCCCCCCCCCCNS(=O)(=O)c1cccc2c(Cl)cccc12 [Compound A-7]
- Vascular defects in rps29 mutant embryos (in words) (rps29−/− embryos; zebrafish): rescued vascular defects

Compound: NCCCCCCNS(=O)(=O)c1cccc2ccccc12 [Compound W-5]
- Vascular defects in rps29 mutant embryos (in words) (rps29−/− embryos; zebrafish): rescued vascular defects

Compound: NCCCCCCNS(=O)(=O)c1cccc2c(Cl)cccc12 [Compound W-7]
- Hemoglobin levels in the zebrafish embryo (in words) (rps29−/− embryos): rescued hemoglobin levels
- Endothelial defect in rps29 mutant embryos (in words) (rps29−/− embryos; zebrafish): rescued the endothelial defect

- efflux ratio at 60 min (P-gp (MDR1); [8]): 0.96
- Papp A→B at 60 min (P-gp (MDR1); [9]): 31.9 ×10⁻⁶ cm/s
- Papp B→A at 60 min (P-gp (MDR1); [10]): 30.6 ×10⁻⁶ cm/s
- efflux ratio at 2 h (in vitro; [11]): > 173
- Papp A→B at 2 h (in vitro; [12]): 0.21 ×10⁻⁶ cm/s
- Papp B→A at 2 h (in vitro; [13]): 21.9 ×10⁻⁶ cm/s
Compound: CC[C@H]1OC(=O)[C@H](C)[C@@H](O[C@H]2C[C@@](C)(OC)[C@@H](O)[C@H](C)O2)[C@H](C)[C@@H](O[C@@H]2O[C@H](C)C[C@H](N(C)C)[C@H]2O)[C@](C)(O)C[C@@H](C)C(=O)[C@H](C)[C@@H](O)[C@]1(C)O [Erythromycin]
- Efflux status of reference compound (in words) (Caco-2 cells [2]; Caco-2): efflux substrates

Compound: OCCN1CCN(CCCN2c3ccccc3Sc3ccc(C(F)(F)F)cc32)CC1 [Fluphenazine, 4-[3-[2-(trifluoromethyl)phenothiazin-10-yl]lpropyl]-1-piperazineethanol]
- Endothelial defect in rps29 mutant embryos (in words) (rps29−/− embryos; zebrafish): successfully rescued the endothelial defect

- Papp A→B at 60 min (P-gp (MDR1); [9]): < 1.42 ×10⁻⁶ cm/s
- Efflux ratio MDCK-MDR1 cells (MDCK-MDR1 cells; dog, MDCK-MDR1, 60 min): 0
- efflux ratio at 2 h (in vitro; [11]): 0.68
- Papp A→B at 2 h (in vitro; [12]): 3.81 ×10⁻⁶ cm/s
- Papp B→A at 2 h (in vitro; [13]): 2.61 ×10⁻⁶ cm/s
Compound: FC(F)(F)c1ccc2c(c1)N(CCCCN1CCCCC1)c1ccccc1S2 [MT-009, 10-(4-(piperidin-1-yl)butyl)-2-(trifluoromethyl)-10H-phenothiazine]

Compound: OCCN(CCO)CC(O)CN1c2ccccc2Sc2ccc(C(F)(F)F)cc21 (stereo not shown) [MT-014, 2,2′-(2-hydroxy-3-(2-(trifluoromethyl)-10H-phenothiazin-10-yl)propylazanediyl)-diethanol]
- Tail and anemia phenotypes versus DMSO (in words) ([3]; 10 μM, three experiments): less severe tail and anemia phenotypes

- efflux ratio at 60 min (P-gp (MDR1); [8]): > 9.83
- Papp A→B at 60 min (P-gp (MDR1); [9]): 1.05 ×10⁻⁶ cm/s
- Papp B→A at 60 min (P-gp (MDR1); [10]): 10.3 ×10⁻⁶ cm/s
- efflux ratio at 2 h (in vitro; [11]): 1.33
- Papp A→B at 2 h (in vitro; [12]): 12.5 ×10⁻⁶ cm/s
- Papp B→A at 2 h (in vitro; [13]): 16.6 ×10⁻⁶ cm/s
Compound: OCCOCCOCCN1CCN(CC(O)CN2c3ccccc3Sc3ccc(C(F)(F)F)cc32)CC1 (stereo not shown) [MT-016, 1-(4-(2-(2-(2-hydroxyethoxy)ethoxy)ethyl)piperazin-1-yl)-3-(2-(trifluoromethyl)-10H-phenothiazin-10-yl)propan-2-ol]
- Ratio of embryos in group MA (mutant anemic) [3, 14]: 7% and 9% and 5%
- Ratio of embryos in group MNA (mutant not anemic) [3, 14]: 7% and 8%
- Ratio of embryos in group MPA (mutant partial anemic) [3, 14]: 17% and 10% and 15%
- Ratio of embryos in group WT (wild type) [3, 14]: 69% and 74% and 72%

Compound: CS(=O)(=O)NCC1CCN(CC(O)CN2c3ccccc3Sc3ccc(C(F)(F)F)cc32)CC1 (stereo not shown) [MT-036, N-((1-(2-hydroxy-3-(2-(trifluoromethyl)-10H-phenothiazin-10-yl)propyl)piperidin-4-yl)methyl)methanesulfonamide]
- Permeability coefficient (Papp) Caco-2 cells (A -> B) (Caco-2 cells [4]; apical to basolateral, 2-hour): 8.55 10^−6 cm/s
- Permeability coefficient (Papp) Caco-2 cells (B -> A) (Caco-2 cells [4]; basolateral to apical, 2-hour): 15.93 10^−6 cm/s
- Efflux ratio Caco-2 cells (Caco-2 cells [4]; from mean Papp B-A and A-B, 2-hour transport): 1.86
- Permeability coefficient (Papp) MDCK-MDR1 cells (A -> B) (MDCK-MDR1 cells; apical to basolateral, 60-min, 37° C.): 2.85 10^−6 cm/s
- Permeability coefficient (Papp) MDCK-MDR1 cells (B -> A) (MDCK-MDR1 cells; basolateral to apical, 60-min, 37° C.): 13.91 10^−6 cm/s
- Efflux ratio MDCK-MDR1 cells (MDCK-MDR1 cells; from mean Papp B-A and A-B, 60-min transport, 37° C.): 4.89

- Efflux ratio Caco-2 cells (Caco-2 cells [4]; human, Caco-2, 2 h): 1.11
- efflux ratio at 60 min (P-gp (MDR1); [8]): 0.81
- Efflux ratio MDCK-MDR1 cells (MDCK-MDR1 cells; dog, MDCK-MDR1, 60 min): 0.85
- efflux ratio at 2 h (in vitro; [11]): 0.89
- Papp A→B at 2 h (in vitro; [12]): 33.8 ×10⁻⁶ cm/s
- Papp B→A at 2 h (in vitro; [13]): 30.2 ×10⁻⁶ cm/s
Compound: COCCc1ccc(OCC(O)CNC(C)C)cc1 (stereo not shown) [Metoprolol]
- Cell permeability of reference compound (in words) (Caco-2 cells [2]): high cell permeability

Compound: OCCN1CCN(CCCN2c3ccccc3Sc3ccc(Cl)cc32)CC1 [Perphenazine, 4-[3-(2-Chloro-10H-phenothiazin-10-yl)propyl]-1-piperazineethanol]
- Endothelial defect in rps29 mutant embryos (in words) (rps29−/− embryos; zebrafish): successfully rescued the endothelial defect
- Oral bioavailability [5]: approximately 40%
- Potency relative to chlorpromazine [6]: approximately 5 times

- Papp A→B at 60 min (P-gp (MDR1); [9]): < 1.28 ×10⁻⁶ cm/s
- Papp B→A at 60 min (P-gp (MDR1); [10]): < 0.59 ×10⁻⁶ cm/s
- efflux ratio at 2 h (in vitro; [11]): 0.35
- Papp A→B at 2 h (in vitro; [12]): 1.29 ×10⁻⁶ cm/s
- Papp B→A at 2 h (in vitro; [13]): 0.46 ×10⁻⁶ cm/s
Compound: CN1CCN(CCCN2c3ccccc3Sc3ccc(Cl)cc32)CC1 [Prochloperazine]

- Papp A→B at 60 min (P-gp (MDR1); [9]): 10.1 ×10⁻⁶ cm/s
- Papp B→A at 60 min (P-gp (MDR1); [10]): 44 ×10⁻⁶ cm/s
Compound: C=C[C@H]1C[N@@]2CC[C@H]1C[C@@H]2[C@@H](O)c1ccnc2ccc(OC)cc12 [Quinidine]

- Papp A→B at 60 min (P-gp (MDR1); [9]): 3.35 ×10⁻⁶ cm/s
- Papp B→A at 60 min (P-gp (MDR1); [10]): 3.56 ×10⁻⁶ cm/s
- Papp A→B at 2 h (in vitro; [12]): 4.07 ×10⁻⁶ cm/s
- Papp B→A at 2 h (in vitro; [13]): 3.51 ×10⁻⁶ cm/s
Compound: CN1CCN(CCCN2c3ccccc3Sc3ccc(S(=O)(=O)N(C)C)cc32)CC1 [Thioproperazine Dimesilate]

Compound: CN1CCN(CCCN2c3ccccc3Sc3ccc(C(F)(F)F)cc32)CC1 [Trifluoperazine, 10-[3-(4-methylpiperazin-1-yl)propyl]-2-(trifluoromethyl)phenothiazine]
- Red blood cell number and hemoglobin levels (in words) (DBA murine model): significantly increased red blood cell number and hemoglobin levels
- p53 activity in the bone marrow (in words) (DBA murine model): reduced p53 activity in the bone marrow
- Endothelial defect in rps29 mutant embryos (in words) (rps29−/− embryos; zebrafish): successfully rescued the endothelial defect
- Papp A→B at 60 min (P-gp (MDR1); [9]): < 0.87 ×10⁻⁶ cm/s
- Concentration restoring the percentage of CD71+ cells in an erythroid cell population ([1]; in vitro): 5 to 20 µM
- Erythroid differentiation block (in words) ([1]; shRNA against RPS19, primary CD34+ bone marrow cells from DBA patients): relieved the erythroid differentiation block
- Kinase activity of p70S6K (in words) [7]: inhibited the activity
